According to patent US20230295164A1, “COMPOUNDS HAVING ANTIBACTERIAL ACTIVITY” (The Trustees of Princeton University, priority 2020, published 2023):
In brackets after ≈: the same amount, converted by molar mass.

Columns and labels:
Experiment in all cases: MIC testing, broth microdilution in CAMHB
Format in all cases: cell-based
[1] = tested on: Escherichia coli, ATCC BAA-198; conditions: 18-20 hr, lowest concentration that completely inhibits visible growth; for Compound MICs, Escherichia coli, ATCC BAA-198: 37° C.; for MIC: Escherichia coli, ATCCBAA198, 37° C., read-out: Compound MICs, Escherichia coli, ATCC BAA-198
Procedure: (§1) Compounds 1-71 were subsequently tested to determine MICs of the compounds relative to the following five species/strains of bacteria: Staphylococcus aureus, NRS384; Enterococcus faecalis, ATCC 51575; Salmonella typhimurium, CMCC 50115; Escherichia coli, ATCC BAA-198; and Acinetobacter baumannii, ATCC 17978. MIC testing of compounds was conducted according to the following protocol.
(§2) For each strain to be tested, made fresh streaks onto CAMHA from −80° C. glycerol stocks.
(§3) • CAMHB: Dissolved 22 g of the powder per 1 L of purified water. Mixed well. Autoclaved at 121° C. for 10 minutes. Stored at room temperature (RT) for no more than 1 week. • Saline: Dissolved 9 g of the powder per 1 L of purified water. Mixed well. Autoclaved at 121° C. for 30 minutes. Stored at room temperature (RT) for no more than 1 week.
(§4) Prepared the stock solutions of the tested compounds.
(§5) For compounds: • a) Dispensed 20 ul compound to the wells in column 1, and 20 ul DMSO to the wells in column 2 to 12; • b) Diluted the compounds by transferring 10 ul compounds from column 1 to 20 ul DMSO in column 2; mix with pipette. • c) Repeated until column 11 to get 3×serial dilutions. Column 12 was the DMSO control.
(§6) A multichannel pipette was used to deliver 1 μl of the diluted compound into each well of the corresponding daughter plate.
(§7) Scraped 4-8 single colonies from an agar plate into 5 ml saline in a 14 ml Falcon conical tube. Vortexed the tube to suspend the bacteria. Adjusted the turbidity to ˜0.2 (corresponding to 0.5 McFarland) with an Ultrospec 10 Cell density meter.
(§8) The strain suspension was diluted 200-fold in CAMHB medium and dispense into a sterile reservoir. A multichannel pipette was then used to deliver 99 μl of the diluted inocula into each well of the corresponding daughter plate.
(§9) Incubate the daughter plates at 37° C., 85% humidity for 18-20 hr.
(§10) A magnifying mirror device was used for ease of scoring the presence or absence of growth in the wells. 96-well micro-plates were photographed.

[2] = tested on: Staphylococcus aureus, NRS384; conditions: 18-20 hr, lowest concentration that completely inhibits visible growth; for Compound MICs, Staphylococcus aureus, NRS384: 37° C.; for MIC: Staphylococcus aureus, NRS384, 37° C., read-out: Compound MICs, Staphylococcus aureus, NRS384
Procedure: as §1, §2, §3, §4, §5, §6, §7, §8, §9, §10

[3] = tested on: Acinetobacter baumannii, ATCC 17978; conditions: 18-20 hr, lowest concentration that completely inhibits visible growth; for Compound MICs, Acinetobacter baumannii, ATCC 17978: 37° C.; for MIC: Acinetobacter baumannii, ATCC17978, 37° C., read-out: Compound MICs, Acinetobacter baumannii, ATCC 17978
Procedure: as §1, §2, §3, §4, §5, §6, §7, §8, §9, §10

[4] = tested on: Enterococcus faecalis, ATCC 51575; conditions: 18-20 hr, lowest concentration that completely inhibits visible growth; for Compound MICs, Enterococcus faecalis, ATCC 51575: 37° C.; for MIC: Enterococcus faecalis, ATCC51575, 37° C., read-out: Compound MICs, Enterococcus faecalis, ATCC 51575
Procedure: as §1, §2, §3, §4, §5, §6, §7, §8, §9, §10

[5] = tested on: Salmonella typhimurium, CMCC 50115; conditions: 37° C., 18-20 hr, lowest concentration that completely inhibits visible growth; for MIC: Salmonella enterica, read-out: Compound MICs, Salmonella typhimurium, CMCC 50115
Procedure: as §1, §2, §3, §4, §5, §6, §7, §8, §9, §10

| SMILES | Compound MICs, Escherichia coli, ATCC BAA-198 [1] [µg/mL] | Compound MICs, Staphylococcus aureus, NRS384 [2] [µg/mL] | Compound MICs, Acinetobacter baumannii, ATCC 17978 [3] [µg/mL] | Compound MICs, Enterococcus faecalis, ATCC 51575 [4] [µg/mL] | Compound MICs, Salmonella typhimurium, CMCC 50115 [5] [µg/mL] | MIC [1] [µg/mL] | MIC [2] [µg/mL] | MIC [3] [µg/mL] | MIC [4] [µg/mL] | MIC [5] [µg/mL] |
| --- | --- | --- | --- | --- | --- | --- | --- | --- | --- | --- |
| CC[Si](C#Cc1ccc(CNc2nc(N)nc3ccc4c(ccn4Cc4ccc(C#C[Si](CC)(CC)CC)cc4)c23)cc1)(CC)CC [Compound 27] | >64 | >64 | >64 | >64 | >64 | – | – | – | – | – |
| COc1cc(Cn2ccc3c4c(N)nc(N)nc4ccc32)cc(OC)c1OC [Compound 71] | – | – | – | – | – | 2.37 (≈ 6.25 µM) | 0.03 (≈ 0.0791 µM) | 7.11 (≈ 18.7 µM) | 0.01 (≈ 0.0264 µM) | 0.79 (≈ 2.08 µM) |
| Nc1nc(N)c2c(ccc3c2ccn3Cc2ccc(-c3ccccc3)cn2)n1 [Compound 58] | 7.11 | 0.09 | 2.37 | 0.03 | 0.26 | – | – | – | – | – |
| Nc1nc(N)c2c(ccc3c2ccn3Cc2cccc(F)c2)n1 [Compound 12] | – | – | – | – | – | 7.11 (≈ 23.1 µM) | 0.26 (≈ 0.846 µM) | 2.37 (≈ 7.71 µM) | 0.03 (≈ 0.0976 µM) | 0.79 (≈ 2.57 µM) |
| Nc1nc(N)c2c(ccc3c2ccn3Cc2cccc(Cl)c2Cl)n1 [Compound 68] | 2.37 | 0.03 | 2.37 | 0.01 | 0.26 | – | – | – | – | – |
| Nc1nc(N)c2c(ccc3c2ccn3Cc2ccc(F)c(F)c2)n1 [Compound 13] | – | – | – | – | – | 7.11 (≈ 21.9 µM) | 0.088 (≈ 0.271 µM) | 2.37 (≈ 7.29 µM) | 0.01 (≈ 0.0307 µM) | 0.088 (≈ 0.271 µM) |
| Nc1nc(NC2CC2)nc2ccc3c(ccn3Cc3ccc(C#CC4CC4)cc3)c12 [Compound 20] | >64 | 2.37 | 64 | 0.79 | 21.3 | – | – | – | – | – |
| Nc1nc(N)c2c(n1)c(C1CC1)cc1c2ccn1Cc1ccc(F)cc1 [Compound 49] | >64 | 2.37 | >64 | 0.26 | 2.37 | – | – | – | – | – |
| Nc1nc(N)c2c(n1)c(-c1cccnc1)cc1c2ccn1Cc1ccc(F)cc1 [Compound 43] | 64 | 2.37 | 64 | 0.09 | 2.37 | – | – | – | – | – |
| Nc1nc(N)c2c(ccc3c2ccn3Cc2ccc([N+](=O)[O-])cc2)n1 [Compound 34] | 7.11 | 0.26 | 21.3 | 0.09 | 0.26 | – | – | – | – | – |
| Nc1nc(N)c2c(ccc3c2ccn3Cc2cccc(Oc3ccccc3)c2)n1 [Compound 5] | – | – | – | – | – | 7.11 (≈ 18.6 µM) | 0.26 (≈ 0.682 µM) | 7.11 (≈ 18.6 µM) | 0.03 (≈ 0.0786 µM) | 0.79 (≈ 2.07 µM) |
| COc1cc(Cn2ccc3c4c(N)nc(N)nc4ccc32)cc(OC)c1 [Compound 66] | 2.37 | 0.09 | 7.11 | 0.01 | 0.26 | – | – | – | – | – |
| Nc1nc(N)c2c(ccc3c2ccn3CCc2ccc(F)cc2)n1 [Compound 39] | 7.11 | 0.79 | 21.3 | 0.09 | 2.37 | – | – | – | – | – |
| C#Cc1ccc(Cn2ccc3c4c(N)nc(N)nc4c(Br)cc32)cc1 [Compound 47] | >64 | 0.09 | >64 | 0.003 | 2.37 | – | – | – | – | – |
| Nc1nc(N)c2ccc(NCc3ccc(F)cc3)cc2n1 [Compound 64] | 64 | 7.11 | >64 | 21.3 | 64 | – | – | – | – | – |
| COc1ccc(-c2cc3c(ccn3Cc3ccc(F)cc3)c3c(N)nc(N)nc23)cc1 [Compound 41] | 64 | 2.37 | 21.3 | 0.09 | 0.79 | – | – | – | – | – |
| Cc1ccc(Cn2ccc3c4c(N)nc(N)nc4ccc32)c2ccccc12 [Compound 42] | 7.11 | 0.03 | 7.11 | 0.01 | 0.79 | – | – | – | – | – |
| CC(C)(C)OC(=O)NCC#Cc1ccc(Cn2ccc3c4c(N)nc(N)nc4ccc32)cc1 [Compound 16] | >64 | 0.79 | >64 | 0.09 | 21.3 | – | – | – | – | – |
| C=C(Cn1ccc2c3c(N)nc(N)nc3ccc21)C(=O)OC [Compound 62] | 21.3 | 0.79 | 21.3 | 0.003 | 0.26 | – | – | – | – | – |
